Tests used:
[1] = target: T1, Bile acid receptor (Homo sapiens, UniProt Q96RI1); experiment: Induction of SRC1 coactivator peptide binding to ligand binding domain of human FXR by FRET assay
T1 sequence (Q96RI1 whole entry): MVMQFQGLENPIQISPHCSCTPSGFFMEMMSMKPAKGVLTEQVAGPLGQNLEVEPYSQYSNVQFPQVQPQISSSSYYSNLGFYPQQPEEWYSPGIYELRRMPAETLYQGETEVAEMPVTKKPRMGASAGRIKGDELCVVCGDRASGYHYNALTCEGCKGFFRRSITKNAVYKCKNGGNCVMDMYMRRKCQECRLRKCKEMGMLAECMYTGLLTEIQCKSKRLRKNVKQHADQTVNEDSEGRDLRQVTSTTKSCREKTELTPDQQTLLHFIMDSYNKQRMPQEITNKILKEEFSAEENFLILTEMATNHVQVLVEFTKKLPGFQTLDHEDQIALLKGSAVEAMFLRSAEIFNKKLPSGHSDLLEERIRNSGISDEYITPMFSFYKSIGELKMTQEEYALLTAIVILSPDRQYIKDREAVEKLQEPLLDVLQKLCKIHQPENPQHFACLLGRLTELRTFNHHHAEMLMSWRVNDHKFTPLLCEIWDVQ

[2] = target: T2, Bile acid receptor (Homo sapiens) (UniProt Q96RI1); experiment: Induction of SRC1 coactivator peptide binding to ligand binding domain of human FXR by FRET assay relative to GW-4064; set-up: concentration or dose not given beside the values
T2 sequence (whole entry): T1 sequence (Q96RI1 whole entry)

[3] = target: T1, Bile acid receptor; experiment: Increase in human FXR-mediated transient transcription of luciferase reporter gene transfected in african green monkey CV1 cells; format: cell-based, CV-1
[4] = target: T2, Bile acid receptor (Homo sapiens); experiment: Increase in human FXR-mediated transient transcription of luciferase reporter gene transfected in african green monkey CV1 cells relative to GW-4064; format: cell-based; set-up: concentration or dose not given beside the values; conditions: CV-1
[5] = Terminal half life in rat at 1 mg/kg, iv; format: ADME, organism-based; set-up: dose 1 mg/kg, route intravenous; conditions: in vivo, read-out: beta t1/2
[6] = Total clearance in rat at 1 mg/kg, iv; format: ADME, organism-based; set-up: dose 1 mg/kg, route intravenous; conditions: in vivo
[7] = Volume of distribution at steady state in rat at 1 mg/kg, iv; format: ADME, organism-based; set-up: dose 1 mg/kg, route intravenous; conditions: in vivo, read-out: Vdss
[8] = Oral bioavailability in rat at 5 mg/kg; format: ADME, organism-based; conditions: in vivo

SMILES: CC(C)c1onc(-c2c(Cl)cccc2Cl)c1COc1ccc2c(c1)CC(=O)N(c1cccc(C(=O)O)c1)C2
- EC50 [1]: 1100 nM
- Activity [2]: 75%
- EC50 [3]: > 10000 nM

SMILES: CC(C)c1onc(-c2c(Cl)cccc2Cl)c1COc1ccc2cc(-c3cccc(C(=O)O)c3)sc2c1
- EC50 [1]: 140 nM
- Activity [2]: 92%
- EC50 [3]: 63 nM
- Activity [4]: 93%

SMILES: CC(C)c1onc(-c2c(Cl)cccc2Cl)c1CCc1nc2cccc(Nc3cccc(C(=O)O)c3)c2o1
- EC50 [1]: 1700 nM
- Activity [2]: 19%
- EC50 [3]: > 10000 nM

SMILES: CC(C)c1onc(-c2c(Cl)cccc2Cl)c1COc1ccc2c(ccn2C(=O)c2cccc(C(=O)O)c2)c1
- EC50 [1]: 150 nM
- Activity [2]: 68%
- EC50 [3]: 860 nM
- Activity [4]: 63%

SMILES: CC(C)c1onc(-c2c(Cl)cccc2Cl)c1COc1ccc2sc(-c3cccc(C(=O)O)c3)cc2c1
- EC50 [1]: 55 nM
- Activity [2]: 90%
- EC50 [3]: 32 nM
- Activity [4]: 87%
- half-life [5]: 15 min
- clearance [6]: 66 mL/min/kg
- Vd [7]: 0.72 L/kg
- bioavailability [8]: 8.5%

SMILES: CC(C)c1onc(-c2c(Cl)cccc2Cl)c1COc1ccc2cc(-c3ccc(C(=O)O)cc3)ccc2c1
- EC50 [1]: 440 nM
- Activity [2]: 68%
- EC50 [3]: 980 nM
- Activity [4]: 170%

SMILES: CC(C)c1onc(-c2c(Cl)cccc2Cl)c1COc1ccc2nc(-c3cccc(C(=O)O)c3)sc2c1
- EC50 [1]: 410 nM
- Activity [2]: 72%
- EC50 [3]: 410 nM
- Activity [4]: 86%

SMILES: CC(C)c1onc(-c2c(Cl)cccc2Cl)c1COc1ccc2[nH]c(-c3cccc(C(=O)O)c3)cc2c1
- EC50 [1]: 480 nM
- Activity [2]: 81%
- EC50 [3]: 630 nM
- Activity [4]: 103%

SMILES: CC(C)c1onc(-c2c(Cl)cccc2Cl)c1COc1ccc2c(ccn2Cc2cccc(C(=O)O)c2)c1
- EC50 [1]: 320 nM
- Activity [2]: 80%
- EC50 [3]: 210 nM
- Activity [4]: 84%
- half-life [5]: 45 min
- clearance [6]: 6.7 mL/min/kg
- Vd [7]: 0.07 L/kg
- bioavailability [8]: 12%

SMILES: CC(C)c1onc(-c2c(Cl)cccc2Cl)c1COc1ccc2[nH]cc(Cc3cccc(C(=O)O)c3)c2c1
- EC50 [1]: 1500 nM
- Activity [2]: 25%
- EC50 [3]: > 10000 nM

SMILES: CC(C)c1onc(-c2c(Cl)cccc2Cl)c1COc1ccc2sc(-c3ccc(C(=O)O)cc3)cc2c1
- EC50 [1]: 280 nM
- Activity [2]: 80%
- EC50 [3]: 160 nM
- Activity [4]: 89%

SMILES: CC(C)c1onc(-c2c(Cl)cccc2Cl)c1COc1ccc2c(c1)ncn2Cc1cccc(C(=O)O)c1
- EC50 [1]: 1400 nM
- Activity [2]: 38%
- EC50 [3]: 5000 nM
- Activity [4]: 40%
- half-life [5]: 31 min
- clearance [6]: 4.4 mL/min/kg
- Vd [7]: 0.085 L/kg
- bioavailability [8]: 26%

SMILES: CC(C)c1onc(-c2c(Cl)cccc2Cl)c1COc1ccc2c(c1)CCN(c1cccc(C(=O)O)c1)C2=O
- EC50 [1]: 710 nM
- Activity [2]: 52%
- EC50 [3]: 8300 nM
- Activity [4]: 112%

SMILES: CC(C)c1onc(-c2c(Cl)cccc2Cl)c1CNc1nc2ccc(-c3cccc(C(=O)O)c3)cc2s1
- EC50 [1]: 960 nM
- Activity [2]: 91%
- EC50 [3]: 380 nM
- Activity [4]: 123%

SMILES: CC(C)c1onc(-c2c(Cl)cccc2Cl)c1COc1ccc2c(ccn2Cc2ccc(C(=O)O)cc2)c1
- EC50 [1]: 160 nM
- Activity [2]: 80%
- EC50 [3]: 330 nM
- Activity [4]: 79%

SMILES: CC(C)c1onc(-c2c(Cl)cccc2Cl)c1COc1ccc2c(Nc3cccc(C(=O)O)c3)cccc2c1
- EC50 [1]: 320 nM
- Activity [2]: 95%
- EC50 [3]: 81 nM
- Activity [4]: 57%

SMILES: CC(C)c1onc(-c2c(Cl)cccc2Cl)c1COc1ccc2cc(-c3cccc(C(=O)O)c3)ccc2c1
- EC50 [1]: 110 nM
- Activity [2]: 88%
- EC50 [3]: 130 nM
- Activity [4]: 103%

SMILES: CC(C)c1onc(-c2c(Cl)cccc2Cl)c1CCc1nc2cc(-c3cccc(C(=O)O)c3)ccc2o1
- EC50 [1]: 1200 nM
- Activity [2]: 41%
- EC50 [3]: 710 nM
- Activity [4]: 75%

SMILES: CC(C)c1onc(-c2c(Cl)cccc2Cl)c1COc1ccc2c(Cc3cccc(C(=O)O)c3)c[nH]c2c1
- EC50 [1]: 590 nM
- Activity [2]: 81%
- EC50 [3]: 930 nM
- Activity [4]: 32%

SMILES: CC(C)c1onc(-c2c(Cl)cccc2Cl)c1COc1ccc2c(c1)CN(c1cccc(C(=O)O)c1)C2=O
- EC50 [1]: 670 nM
- Activity [2]: 59%
- EC50 [3]: 1100 nM
- Activity [4]: 61%

SMILES: CC(C)c1onc(-c2c(Cl)cccc2Cl)c1COc1ccc2c(ccn2S(=O)(=O)c2cccc(C(=O)O)c2)c1
- EC50 [1]: 160 nM
- Activity [2]: 87%
- EC50 [3]: 1300 nM
- Activity [4]: 63%

SMILES: CC(C)c1onc(-c2c(Cl)cccc2Cl)c1COc1ccc2cc(-c3ccc(C(=O)O)cc3)sc2c1
- EC50 [1]: 200 nM
- Activity [2]: 95%
- EC50 [3]: 220 nM
- Activity [4]: 79%
